In patent US20260256807A1, “SUBSTITUTED PYRAZOLES AND IMIDAZOLES AS OREXIN RECEPTOR ANTAGONISTS COMPOSITION, METHODS FOR TREATING NEUROLOGICAL AND PSYCHOLOGICAL DISORDERS” (HAGER BIOSCIENCES, LLC, priority 2022, published 2026):

How the values were obtained:
human orexin-2 receptor = molecular target: T1, human orexin-2 receptor (Homo sapiens, UniProt O43614); test: Intracellular calcium (FLIPR) antagonist assay, CHO cells expressing human orexin-2 receptor, 3 nM orexin-A; type: cell-based; details: 1 uM compound, orexin-A 3 nM; for inhibition at 1 µM: CHO, read-out: OX2R % Inh. @ 1uM
T1 construct: expressed in transfected cells; host or cells: CHO cells (G418 selection)
T1 sequence (O43614 1-444): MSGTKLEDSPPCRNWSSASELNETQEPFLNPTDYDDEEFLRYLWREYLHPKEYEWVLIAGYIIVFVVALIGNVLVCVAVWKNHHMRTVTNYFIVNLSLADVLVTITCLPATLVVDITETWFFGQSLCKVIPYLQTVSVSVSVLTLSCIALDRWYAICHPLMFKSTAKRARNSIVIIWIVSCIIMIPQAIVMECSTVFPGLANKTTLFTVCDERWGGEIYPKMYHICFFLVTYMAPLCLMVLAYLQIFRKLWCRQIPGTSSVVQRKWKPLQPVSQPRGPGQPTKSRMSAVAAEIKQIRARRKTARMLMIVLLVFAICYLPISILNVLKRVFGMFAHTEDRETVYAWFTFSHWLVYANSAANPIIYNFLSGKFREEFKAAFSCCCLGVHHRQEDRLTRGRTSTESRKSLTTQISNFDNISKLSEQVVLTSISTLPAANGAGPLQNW
Protocol: (§1) Antagonistic activities on both orexin receptors (i.e., to identify Orexin Receptor Antagonists) have been measured for each example compound using the in vitro assays (intracellular calcium measurements) as described herein. Other assays may also be used to identify Orexin Receptor Antagonists as would be understood by those of ordinary skill in the art. Chinese hamster ovary (CHO) cells expressing the human orexin-1 receptor and the human orexin-2 receptor, respectively, are grown in culture medium (Ham F-12 with L-Glutamine) containing 300 μg/mL G418, 100 U/mL penicillin, 100 μg/mL streptomycin and 10% heat inactivated fetal calf serum (FCS). The cells are seeded at 20′000 cells/well into 384-well black clear bottom sterile plates (Greiner). The seeded plates are incubated overnight at 37° C. in 5% CO2. Human orexin-A as an agonist is prepared as 1 mM stock solution in MeOH: water (1:1), diluted in HBSS containing 0.1% bovine serum albumin (BSA), NaHC03: 0.375 g/L and 20 mM HEPES for use in the assay at a final concentration of 3 nM.
(§2) Antagonists were prepared as 10 mM stock solution in DMSO, then diluted in 384-well plates using DMSO followed by a transfer of the dilutions into in HBSS containing 0.1% bovine serum albumin (BSA), NaHC03: 0.375 g/L and 20 mM HEPES. On the day of the assay, 50 μL of staining buffer (HBSS containing 1% FCS, 20 mM HEPES, NaHC03: 0.375 g/L, 5 mM probenecid (Sigma) and 3 μM of the fluorescent calcium indicator fluro-4 AM (1 mM stock solution in DMSO, containing 10% pluronic) is added to each well. The 384-well cell-plates are incubated for 50 min at 37° C. in 5% C02 followed by equilibration at RT for 30 min before measurement. Within the Fluorescent Imaging Plate Reader (FLIPR Tetra, Molecular Devices), potential Orexin Receptor Antagonists were added to the plate in a volume of 10 μl/well, incubated for 120 min and finally 10 μL/well of agonist is added. Fluorescence was measured for each well at 1 second intervals, and the height of each fluorescence peak compared to the height of the fluorescence peak induced by 3 nM orexin-A with vehicle in place of antagonist. The IC50 value (the concentration of compound needed to inhibit 50% of the agonistic response) was determined and normalized using the obtained IC50 value of an on-plate reference compound. Optimized conditions were achieved by adjustment of pipetting speed and cell splitting regime. The calculated IC50 values fluctuate depending on the daily cellular assay performance, as is known to those skilled in the art. In the case where IC50 values have been determined several times for the same compound, the geometric mean has been given.

human orexin-1 receptor = molecular target: T2, human orexin-1 receptor (Homo sapiens, UniProt O43613); test: Intracellular calcium (FLIPR) antagonist assay, CHO cells expressing human orexin-1 receptor, 3 nM orexin-A; type: cell-based; details: 1 uM compound, orexin-A 3 nM; for inhibition at 1 µM: CHO, read-out: OXIR % Inh. @ 1 uM
T2 construct: expressed in transfected cells; host or cells: CHO cells (G418 selection)
T2 sequence (O43613 1-425): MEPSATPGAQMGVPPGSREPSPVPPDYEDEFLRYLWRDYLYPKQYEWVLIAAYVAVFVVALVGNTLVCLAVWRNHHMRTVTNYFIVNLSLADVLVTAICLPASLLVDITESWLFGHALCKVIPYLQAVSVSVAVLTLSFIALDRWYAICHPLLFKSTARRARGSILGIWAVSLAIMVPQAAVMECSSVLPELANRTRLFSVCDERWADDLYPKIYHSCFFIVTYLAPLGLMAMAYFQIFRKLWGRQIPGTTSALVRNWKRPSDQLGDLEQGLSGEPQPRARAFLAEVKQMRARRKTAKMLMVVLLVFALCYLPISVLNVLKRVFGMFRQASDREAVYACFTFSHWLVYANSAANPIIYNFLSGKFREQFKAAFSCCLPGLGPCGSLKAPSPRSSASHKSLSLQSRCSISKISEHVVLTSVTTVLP
Protocol: as §1, §2

| inhibition at 1 µM (human orexin-2 receptor) | OXIR % Inh. @ 1 uM (human orexin-1 receptor) | inhibition at 1 µM (human orexin-1 receptor) | OX2R % Inh. @ 1uM (human orexin-2 receptor) | Structure (SMILES) |
| --- | --- | --- | --- | --- |
| 47% | 76% | – | – | COc1ccc(N2CC[C@@H](C)N(C(=O)c3c(-c4ccccn4)nn4ccccc34)CC2)nc1 [Example 81] |
| 2% | – | 39% | – | C[C@@H]1CCN(c2cnc(C(F)(F)F)cn2)CCN1C(=O)c1nn2c(c1-c1ccccc1)COCC2 [Example 82] |
| 27% | – | 69% | – | C[C@@H]1CCN(c2cnc(C(F)(F)F)cn2)CCN1C(=O)c1nc2ccccn2c1-c1ccccc1 [Example 83] |
| 27% | – | 71% | – | C[C@@H]1CCN(c2cnc(C(F)(F)F)cn2)CCN1C(=O)c1nn2c(c1-c1ccccc1)OCCC2 [Example 84] |
| 52% | – | 93% | – | C[C@@H]1CCN(c2cnc(C(F)(F)F)cn2)CCN1C(=O)c1nn2cccnc2c1-c1ccccc1 [Example 85] |
| 63% | – | 89% | – | C[C@@H]1CCN(c2cnc(C(F)(F)F)cn2)CCN1C(=O)c1nn2ccccc2c1-c1ccccc1 [Example 86] |
| 57% | – | 83% | – | C[C@@H]1CCN(c2cnc(C(F)(F)F)cn2)CCN1C(=O)c1c(-c2ccccn2)nn2ccccc12 [Example 87] |
| 29% | – | 51% | – | C[C@@H]1CCN(c2cnc(C(F)(F)F)cn2)CCN1C(=O)c1c(-c2ncccn2)nn2ccccc12 [Example 88] |
| 10% | – | 25% | – | C[C@@H]1CCN(c2cnc(C(F)(F)F)cn2)CCN1C(=O)c1c(-c2ccccc2)nn2c1COCC2 [Example 89] |
| 80% | – | 95% | – | C[C@@H]1CCN(c2cnc(C(F)(F)F)cn2)CCN1C(=O)c1c(-c2ccccc2)nn2ccccc12 [Example 90] |
| 74% | – | 87% | – | C[C@@H]1CN(c2cnc(C(F)(F)F)cn2)CCCN1C(=O)c1c(-c2ccccc2)nn2cccnc12 [Example 91] |
| 13% | – | 25% | – | COc1ccc(N2CC[C@@H](C)N(C(=O)c3c(-c4ncccn4)nn4ccccc34)CC2)nc1 [Example 92] |
| – | 36% | – | 33% | COc1ccc(N2CC[C@@H](C)N(C(=O)c3c(-c4ccccn4)nn4ccccc34)CC2)nc1 [Example 93] |
| – | 43% | – | 21% | C[C@@H]1CCN(c2cnc(C(F)(F)F)cn2)CCN1C(=O)c1c(-c2ncccn2)nn2ccccc12 [Example 94] |
| – | 86% | – | 61% | C[C@@H]1CCN(c2cnc(C(F)(F)F)cn2)CCN1C(=O)c1c(-c2ccccn2)nn2ccccc12 [Example 95] |
| 71% | – | 100% | – | C[C@@H]1CCN(c2nc3cc(Cl)ccc3o2)CCN1C(=O)c1nn2cccnc2c1-c1ccccn1 [Example 96] |
| 51% | – | 98% | – | C[C@@H]1CCN(c2ccc(C(F)(F)F)cn2)CCN1C(=O)c1nn2cccnc2c1-c1ccccn1 [Example 97] |
| 26% | – | 57% | – | C[C@@H]1CCN(c2cnc(C(F)(F)F)cn2)CCN1C(=O)c1nn2cccnc2c1-c1ccccn1 [Example 98] |
| 56% | – | 45% | – | Cc1cc(C)nc(N2CC[C@@H](C)N(C(=O)c3nn4cccnc4c3-c3ccccn3)CC2)n1 [Example 99] |
| 57% | – | 54% | – | C[C@@H]1CCN(c2nc3cc(Cl)ccc3o2)CCN1C(=O)c1ccnn1-c1ccccc1 [Example 100] |
| 32% | – | 19% | – | C[C@@H]1CCN(c2ccc(C(F)(F)F)cn2)CCN1C(=O)c1ccnn1-c1ccccc1 [Example 101] |
